The target of one assay is T1, human μ-opiate receptor (Homo sapiens, UniProt P35372).
T1 construct: purchased NEN, Zaventem, Belgium RB-HOM; host or cells: CHO-K1 cells (membrane preparation)
Kind of assay: μ-opiate receptor binding assay with [3H] naloxone (WGA-SPA beads). To be noted: 1 μmol/l test substance, 1 nmol/l [3H] naloxone, CHO-K1 cell membranes expressing human μ-opiate receptor. How it is done:
The receptor affinity to the human μ-opiate receptor was determined in a homogeneous batch in microtitre plates. To this end, dilution series of the substituted indole derivative to be tested were incubated for 90 minutes at room temperature with a receptor membrane preparation (15-40 μg protein per 250 μl incubation batch) of CHO-K1 cells, which express the human μ-opiate receptor (RB—HOM receptor membrane preparation from NEN, Zaventem, Belgium), in the presence of 1 nmol/l of the radioactive ligand [^3H] naloxone (NET719, NEN, Zaventem, Belgium) and 1 mg of WGA-SPA beads (wheat germ agglutinin SPA beads from Amersham/Pharmacia, Freiburg, Germany) in a total volume of 250 μl. 50 mmol/l tris-HCl supplemented with 0.05 wt. % sodium azide and 0.06 wt. % bovine serum albumin were used as the incubation buffer. In order to determine the non-specific binding, 25 μmol/l of naloxone were also added. At the end of the ninety-minute incubation period the microtitre plates were centrifuged for 20 minutes at 1000 g and the radioactivity was measured in a β counter (Microbeta-Trilux, PerkinElmer Wallac, Freiburg, Germany). The percentage displacement of the radioactive ligand from its binding to the human μ-opiate receptor was determined at a test substance concentration of 1 μmol/l and stated as the percentage inhibition (% inhibition) of the specific binding. In some cases the percentage displacement due to differing concentrations of the compounds having the general formula I to be tested was used to calculate the IC50 inhibition concentrations which bring about a 50-percent displacement of the radioactive ligand. Ki values for the test substances were obtained by extrapolation using the Cheng-Prusoff equation.

Another assay deals with T2, ORL1 receptor (Homo sapiens, UniProt P41146).
T2 construct: expressed in transfected cells; host or cells: CHO (recombinant CHO-ORL1 cells), membranes
T2 sequence (P41146 whole entry): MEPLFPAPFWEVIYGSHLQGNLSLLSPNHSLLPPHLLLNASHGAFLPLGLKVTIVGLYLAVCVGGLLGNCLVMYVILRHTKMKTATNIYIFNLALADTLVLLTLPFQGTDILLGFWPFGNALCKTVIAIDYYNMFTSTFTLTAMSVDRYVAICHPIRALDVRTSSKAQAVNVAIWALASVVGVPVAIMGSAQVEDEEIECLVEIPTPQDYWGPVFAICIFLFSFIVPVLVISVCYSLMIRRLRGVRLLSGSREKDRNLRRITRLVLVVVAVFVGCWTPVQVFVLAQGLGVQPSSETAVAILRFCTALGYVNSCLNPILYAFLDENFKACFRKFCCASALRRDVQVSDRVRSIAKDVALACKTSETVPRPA
Kind of assay: ORL1 receptor binding assay with 3H-nociceptin/orphanin FQ (WGA-SPA beads). To be noted: c=1 μM test substance; 0.5 nM 3H-nociceptin/orphanin FQ; membranes of recombinant CHO-ORL1 cells. The protocol:
Measurement of ORL1 Binding
The cyclohexane derivatives having the general formula I were investigated in a receptor binding assay with ^3H-nociceptin/orphanin FQ with membranes of recombinant CHO—ORL1 cells. This test system was conducted in accordance with the method described by Ardati et al. (Mol. Pharmacol., 51, 1997, p. 816-824). The concentration of ^3H-nociceptin/orphanin FQ in these tests was 0.5 nM. The binding assays were carried out with 20 μg amounts of membrane protein per 200 μl batch in 50 mM Hepes, pH 7.4, 10 mM MgCl2 and 1 mM EDTA. The binding to the ORL1 receptor was determined using 1 mg amounts of WGA-SPA beads (Amersham-Pharmacia, Freiburg, Germany), by incubation of the batch for one hour at room temperature and subsequent measurement in a Trilux scintillation counter (Wallac, Finland). The affinity is given in Table 1 as the nanomolar Ki value or in % inhibition at c=1 μM.

T1 sequence (P35372 whole entry): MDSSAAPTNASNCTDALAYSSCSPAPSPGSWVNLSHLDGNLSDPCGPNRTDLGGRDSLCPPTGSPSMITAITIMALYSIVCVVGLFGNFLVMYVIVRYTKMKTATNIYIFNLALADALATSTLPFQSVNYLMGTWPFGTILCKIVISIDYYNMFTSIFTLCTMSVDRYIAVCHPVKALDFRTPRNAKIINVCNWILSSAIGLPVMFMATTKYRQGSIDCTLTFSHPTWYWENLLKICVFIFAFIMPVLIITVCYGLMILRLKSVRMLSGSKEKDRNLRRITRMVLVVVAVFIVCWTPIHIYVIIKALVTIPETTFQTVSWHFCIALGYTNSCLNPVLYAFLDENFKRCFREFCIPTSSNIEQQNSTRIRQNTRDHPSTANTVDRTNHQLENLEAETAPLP

With `CN(CCCN1CCC(c2cccs2)(N(C)C)CC1)C(=O)c1c[nH]c2ccccc12` [Example 11, N-(3-(4-(Dimethylamino)-4-(thiophen-2-yl)piperidin-1-yl)propyl)-N-methyl-1H-indole-3-carboxamide], the inhibition at 1 µM stood at 86% at human μ-opiate receptor and 80% on ORL1 receptor.
In the case of `CN(CCN1CCC(c2ccccc2)(N(C)C)CC1)C(=O)c1c[nH]c2ccccc12` [Example 12, N-(2-(4-(Dimethylamino)-4-phenylpiperidin-1-yl)ethyl)-N-methyl-1H-indole-3-carboxamide], the inhibition at 1 µM on human μ-opiate receptor was determined as 84%; at ORL1 receptor, 67%.
For `CN(CCCN1CCC(c2cccs2)(N(C)C)CC1)C(=O)CCc1cn(C)c2ccccc12` [Example 13, N-(3-(4-(Dimethylamino)-4-(thiophen-2-yl)piperidin-1-yl)propyl)-N-methyl-3-(1-methyl-1H-indol-3-yl)propanamide], the values for the inhibition at 1 µM at human μ-opiate receptor and on ORL1 receptor were 80% and 35%, respectively.
Regarding `CN(CCN1CCC(c2ccccc2)(N(C)C)CC1)C(=O)CCc1cn(C)c2ccccc12` [Example 14, N-(2-(4-(Dimethylamino)-4-phenylpiperidin-1-yl)ethyl)-N-methyl-3-(1-methyl-1H-indol-3-yl)propanamide], the inhibition at 1 µM at human μ-opiate receptor is 73%; at ORL1 receptor it was 48%.
For `CN(CCCN1CCC(c2cccs2)(N(C)C)CC1)C(=O)c1cc2cc(F)ccc2[nH]1` [Example 15, N-(3-(4-(Dimethylamino)-4-(thiophen-2-yl)piperidin-1-yl)propyl)-5-fluoro-N-methyl-1H-indole-2-carboxamide], in that order: 88% and 58%.
As for `CN(CCN1CCC(c2ccccc2)(N(C)C)CC1)C(=O)c1cc2cc(F)ccc2[nH]1` [Example 16, N-(2-(4-(Dimethylamino)-4-phenylpiperidin-1-yl)ethyl)-5-fluoro-N-methyl-1H-indole-2-carboxamide], the inhibition at 1 µM came out at 94% at human μ-opiate receptor and 89% on ORL1 receptor.
For `CN(CCCN1CCC(c2cccs2)(N(C)C)CC1)C(=O)c1ccc2cc[nH]c2c1` [Example 17, N-(3-(4-(Dimethylamino)-4-(thiophen-2-yl)piperidin-1-yl)propyl)-N-methyl-1H-indole-6-carboxamide] the same measures were 70% and 38%.
Turning to `CN(CCN1CCC(c2ccccc2)(N(C)C)CC1)C(=O)c1ccc2cc[nH]c2c1` [Example 18, N-(2-(4-(Dimethylamino)-4-phenylpiperidin-1-yl)ethyl)-N-methyl-1H-indole-6-carboxamide], the inhibition at 1 µM came out at 95% on human μ-opiate receptor and 82% at ORL1 receptor.
In the case of `CC(CC(=O)N(C)CCCN1CCC(c2cccs2)(N(C)C)CC1)c1c[nH]c2ccccc12` (stereo not shown) [Example 19, N-(3-(4-(Dimethylamino)-4-(thiophen-2-yl)piperidin-1-yl)propyl)-3-(1H-indol-3-yl)-N-methylbutanamide], the results for the inhibition at 1 µM at human μ-opiate receptor and on ORL1 receptor were 89% and 59%, respectively.
For `CC(CC(=O)N(C)CCN1CCC(c2ccccc2)(N(C)C)CC1)c1c[nH]c2ccccc12` (stereo not shown) [Example 20, N-(2-(4-(Dimethylamino)-4-phenylpiperidin-1-yl)ethyl)-3-(1H-indol-3-yl)-N methylbutanamide] the same measures were 88% and 68%.
In the case of `CN(CCCN1CCC(c2cccs2)(N(C)C)CC1)C(=O)CCc1c[nH]c2ccccc12` [Example 21, N-(3-(4-(Dimethylamino)-4-(thiophen-2-yl)piperidin-1-yl)propyl)-3-(1H-indol-3-yl)-N-methylpropanamide], the inhibition at 1 µM on human μ-opiate receptor is 87%; on ORL1 receptor, 62%.
In the case of `COc1ccc2[nH]c(C(=O)N(C)CCCN3CCC(c4cccs4)(N(C)C)CC3)cc2c1` [Example 22, N-(3-(4-(Dimethylamino)-4-(thiophen-2-yl)piperidin-1-yl)propyl)-5-methoxy-N-methyl-1H-indole-2-carboxamide], the inhibition at 1 µM at human μ-opiate receptor was 70%; on ORL1 receptor it was 25%.
Take `CC(C)C(CC(=O)N(C)CCCN1CCC(c2cccs2)(N(C)C)CC1)c1c[nH]c2ccccc12` (stereo not shown) [Example 23, N-(3-(4-(Dimethylamino)-4-(thiophen-2-yl)piperidin-1-yl)propyl)-3-(1H-indol-3-yl)-N,4-dimethylpentanamide]: the results for the inhibition at 1 µM on human μ-opiate receptor and on ORL1 receptor were 86% and 53%, respectively.
Consider `CC(C)C(CC(=O)N(C)CCN1CCC(c2ccccc2)(N(C)C)CC1)c1c[nH]c2ccccc12` (stereo not shown) [Example 24, N-(2-(4-(Dimethylamino)-4-phenylpiperidin-1-yl)ethyl)-3-(1H-indol-3-yl)-N,4-dimethylpentanamide], for which the inhibition at 1 µM on human μ-opiate receptor was determined as 97%; at ORL1 receptor it was 84%.
With `CN(CCN1CCC(c2ccccc2)(N(C)C)CC1)C(=O)C1CCCc2c1[nH]c1ccc(Cl)cc21` (stereo not shown) [Example 25, 6-Chloro-N-(2-(4-(dimethylamino)-4-phenylpiperidin-1-yl)ethyl)-N-methyl-2,3,4,9-tetrahydro-1H-carbazole-1-carboxamide], the “% Inhibition (μ) at 1 μM” value at human μ-opiate receptor is on record as 86%. At ORL1 receptor, the “% Inhibition (ORL1) at 1 μM” value worked out at 62%.
`CN(CCCN1CCC(c2cccs2)(N(C)C)CC1)C(=O)Cc1c[nH]c2cc(F)ccc12` [Example 26, N-(3-(4-(Dimethylamino)-4-(thiophen-2-yl)piperidin-1-yl)propyl)-2-(6-fluoro-1H-indol-3-yl)-N-methylacetamide]: the inhibition at 1 µM turned out to be 88% at human μ-opiate receptor and 59% at ORL1 receptor.
`CN(CCN1CCC(c2ccccc2)(N(C)C)CC1)C(=O)Cc1c[nH]c2cc(F)ccc12` [Example 27, N-(2-(4-(Dimethylamino)-4-phenylpiperidin-1-yl)ethyl)-2-(6-fluoro-1H-indol-3-yl)-N-methylacetamide]: the inhibition at 1 µM was 98% on human μ-opiate receptor and 93% on ORL1 receptor.
On to `CN(CCCN1CCC(c2cccs2)(N(C)C)CC1)C(=O)c1ccc2ccn(C)c2c1` [Example 28, N-(3-(4-(Dimethylamino)-4-(thiophen-2-yl)piperidin-1-yl)propyl)-N,1-dimethyl-1H-indole-6-carboxamide], for which the values for the inhibition at 1 µM at human μ-opiate receptor and on ORL1 receptor were 88% and 36%, respectively.
On to `CN(CCN1CCC(c2ccccc2)(N(C)C)CC1)C(=O)c1ccc2ccn(C)c2c1` [Example 29, N-(2-(4-(Dimethylamino)-4-phenylpiperidin-1-yl)ethyl)-N,1-dimethyl-1H-indole-6-carboxamide], for which the “% Inhibition (μ) at 1 μM” value on human μ-opiate receptor is on record as 94%. Also, the “% Inhibition (ORL1) at 1 μM” value on ORL1 receptor is given as 51%.
For `CN(CCCN1CCC(c2cccs2)(N(C)C)CC1)C(=O)c1cccc2c1ccn2C` [Example 30, N-(3-(4-(Dimethylamino)-4-(thiophen-2-yl)piperidin-1-yl)propyl)-N,1-dimethyl-1H-indole-4-carboxamide], the inhibition at 1 µM at human μ-opiate receptor was 78%; at ORL1 receptor, 21%.
Regarding `CN(CCN1CCC(c2ccccc2)(N(C)C)CC1)C(=O)c1cccc2c1ccn2C` [Example 31, N-(2-(4-(Dimethylamino)-4-phenylpiperidin-1-yl)ethyl)-N,1-dimethyl-1H-indole-4-carboxamide], the inhibition at 1 µM at human μ-opiate receptor turned out to be 88%; at ORL1 receptor, 35%.
For `CCCCC1(N(C)C)CCN(CCN(C)C(=O)CC(c2c[nH]c3ccccc23)C(C)C)CC1` (stereo not shown) [Example 33, N-(2-(4-Butyl-4-(dimethylamino)piperidin-1-yl)ethyl)-3-(1H-indol-3-yl)-N,4-dimethylpentanamide] the same measures were 94% and 27%.
Turning to `CC(C)C(CC(=O)N(C)CCCN1CCC(c2ccccc2)(N(C)C)CC1)c1c[nH]c2ccccc12` (stereo not shown) [Example 34, N-(3-(4-(Dimethylamino)-4-phenylpiperidin-1-yl)propyl)-3-(1H-indol-3-yl)-N,4-dimethylpentanamide], the inhibition at 1 µM was determined as 88% on human μ-opiate receptor and 43% on ORL1 receptor.

The inhibition is the percentage by which the read-out fell short of the control.
